IC50 data for 23 molecules are collected here from US12643887B2, “Heterocyclic derivatives with cardiomyocyte proliferation activity for treatment of heart diseases” (Tongji University, priority 2019, dated 2026).

What is called IC50 is the concentration that inhibits the measured activity by half.

Bounds are passed on as bounds.

Experiment [1] deals with T1, human CK2a2 (CSNK2a2) (Homo sapiens, UniProt P19784).
T1 construct: Recombinant human CK2a2 (CSNK2a2) (full length); GST (N); purchased SignalChem C71-10G; host or cells: Sf9 insect cells
Kind of experiment: CK2a2 (CSNK2a2) enzyme assay (ADP-Glo). The class given is biochemical. As to conditions: ADP-Glo, ATP 15 μM; read-out: CK2 alpha 2 IC50. The procedure:
8. CK2a2 (CSNK2a2) Enzyme Assay
The ability of compounds to inhibit human CK2a2 (CSNK2a2) kinase activities was determined using a commercially available ADP-Glo™ Kinase Assay kit (Promega, Cat #V9102) according to the manufacturer's protocol.
Recombinant human CK2a2 (CSNK2a2) (full length) (expressed in Sf9 insect cells with an N-terminal GST tag) was purchased from SignalChem (Cat #C71-10G). CK2 substrate (sequence: […]) was purchased from SignalChem (Cat #C08-58). This assay, run in a 384-well plate format, is a generic method for measuring kinase activities using an ADP-Glo Kinase Assay Kit. The basic assay procedure involves two steps: (1) Enzymatic step: inhibitors are incubated with the kinase and then ATP (included in the ADP-Glo Kinase Assay Kit) and the MBP protein are added to start the enzymatic reaction; (2) Detection step: after the kinase reaction, first ADP-Glo™ Reagent is added to terminate the kinase reaction and deplete the remaining ATP. Second, the Kinase Detection Reagent is added to simultaneously convert ADP to ATP and allow the newly synthesized ATP to be measured using a luciferase/luciferin reaction. The light generated is measured using a luminometer.
Briefly, CK2a2 (CSNK2a2) (7 nM) in the enzymatic buffer solutions (40 mM Tris, pH 7.5, 20 mM MgCl2, 0.1 mg/ml BSA, 50 μM DTT) were mixed with various concentrations of inhibitors (dissolved in 100% DMSO). These solutions were incubated for 30 minutes at 25° C., and subsequently a mixture of substrate peptide and ATP was added with the final peptide and ATP concentrations at 0.04 mg/ml and 15 μM, respectively. The final reaction mixture of enzyme-substrate-ATP-compound was incubated for 90 minutes at 25° C.
(§1) Afterwards ADP-Glo™ Reagent was added and the mixture was incubated at 25° C. for 60 minutes. Then Kinase Detection Reagent was added, and the final mixture was incubated at 25° C. for 60 minutes. The luminescence signal of the final solution was measured on an Envision instrument (PerkinElmer). The percent (%) inhibition at each concentration of a compound is calculated relative to the luminescence signal in the Max and Min control wells contained within each assay plate. […] The concentrations and percent inhibition values for a test compound are plotted and the concentration of the compound required to achieve 50% inhibition (IC50) is determined with a four-parameter logistic dose response equation.

Experiment [2] addresses T2, human CIT (Homo sapiens, UniProt O14578).
T2 construct: Recombinant human CIT (1-499); GST (N); purchased SignalChem C52-11G; host or cells: Sf9 insect cells
Kind of experiment: CIT enzyme assay (ADP-Glo). The class given is biochemical. The note with it: ADP-Glo, ATP 5 μM; read-out: CIT IC50. How it is done:
The ability of compounds to inhibit human CIT kinase activities was determined using a commercially available ADP-Glo™ Kinase Assay kit (Promega, Cat #V9102) according to the manufacturer's protocol.
Recombinant human CIT (1-499) (expressed in Sf9 insect cells with an N-terminal GST tag) was purchased from SignalChem (Cat #C52-11G). Recombinant full length human MBP (expressed in E. Coli cells with an N-terminal GST tag) was purchased from SignalChem (Cat #M42-54G). This assay, run in a 384-well plate format, is a generic method for measuring kinase activities using an ADP-Glo Kinase Assay Kit. The basic assay procedure involves two steps: (1) Enzymatic step: inhibitors are incubated with the kinase and then ATP (included in the ADP-Glo Kinase Assay Kit) and the MBP protein are added to start the enzymatic reaction; (2) Detection step: after the kinase reaction, first ADP-Glo™ Reagent is added to terminate the kinase reaction and deplete the remaining ATP. Second, the Kinase Detection Reagent is added to simultaneously convert ADP to ATP and allow the newly synthesized ATP to be measured using a luciferase/luciferin reaction. The light generated is measured using a luminometer.
Briefly, CIT (20 nM) in the enzymatic buffer solutions (40 mM Tris, pH 7.5, 20 mM MgCl2, 0.1 mg/ml BSA, 50 μM DTT) were mixed with various concentrations of inhibitors (dissolved in 100% DMSO). These solutions were incubated for 30 minutes at 25° C., and subsequently a mixture of substrate peptide and ATP was added with the final peptide and ATP concentrations at 0.05 mg/ml and 5 μM, respectively. The final reaction mixture of enzyme-substrate-ATP-compound was incubated for 90 minutes at 25° C.
as §1
Background: ADP-Glo turns the ADP formed in a reaction into a luminescent signal.

T2 sequence (O14578 1-499): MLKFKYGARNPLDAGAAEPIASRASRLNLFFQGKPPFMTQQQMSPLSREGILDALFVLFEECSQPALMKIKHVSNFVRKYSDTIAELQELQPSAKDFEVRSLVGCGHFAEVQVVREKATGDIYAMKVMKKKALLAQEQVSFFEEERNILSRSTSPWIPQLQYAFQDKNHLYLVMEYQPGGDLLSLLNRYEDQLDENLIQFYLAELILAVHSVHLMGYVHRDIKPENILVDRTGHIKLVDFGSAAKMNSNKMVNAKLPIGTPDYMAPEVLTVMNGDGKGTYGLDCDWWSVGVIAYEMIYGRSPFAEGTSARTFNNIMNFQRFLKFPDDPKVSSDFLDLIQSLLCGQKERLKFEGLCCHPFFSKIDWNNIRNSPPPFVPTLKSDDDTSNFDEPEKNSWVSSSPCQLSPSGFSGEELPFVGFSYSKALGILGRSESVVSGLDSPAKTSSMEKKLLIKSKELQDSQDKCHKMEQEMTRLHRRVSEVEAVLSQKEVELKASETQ
T1 sequence (P19784 whole entry): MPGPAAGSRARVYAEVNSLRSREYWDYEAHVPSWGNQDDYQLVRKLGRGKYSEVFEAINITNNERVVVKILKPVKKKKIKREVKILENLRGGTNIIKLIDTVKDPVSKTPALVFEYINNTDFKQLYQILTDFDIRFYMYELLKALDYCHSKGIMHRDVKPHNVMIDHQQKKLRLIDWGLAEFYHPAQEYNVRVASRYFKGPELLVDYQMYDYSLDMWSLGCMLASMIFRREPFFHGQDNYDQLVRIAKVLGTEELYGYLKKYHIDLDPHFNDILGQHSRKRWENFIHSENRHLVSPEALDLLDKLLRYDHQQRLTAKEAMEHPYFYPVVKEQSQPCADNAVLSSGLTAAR

Turning to `CN(C1=N/C(=C\c2ccc3c(c2)OCO3)C(=O)N1)c1ccccc1` [Example 1, (Z)-5-(benzo[d][1,3]dioxol-5-ylmethylene)-2-(methyl(phenyl)amino)-3,5-dihydro-4H-imidazol-4-one], the IC50 is 100 to 1000 nM in experiment [1] and more than 10000 nM in experiment [2].
The matching figures for `O=C1NC(Nc2ccc3ncsc3c2)=N/C1=C\c1ccc2c(c1)OCO2` [Example 47, (Z)-5-(benzo[d][1,3]dioxol-5-ylmethylene)-2-(benzo[d]thiazol-6-ylamino)-3,5-dihydro-4H-imidazol-4-one]: more than 10000 nM and more than 10000 nM.
The matching figures for `O=C1NC(Nc2ccc3ncsc3c2)=N/C1=C\c1ccc2ncsc2c1` [Example 48, (Z)-2-(benzo[d]thiazol-6-ylamino)-5-(benzo[d]thiazol-6-ylmethylene)-3,5-dihydro-4H-imidazol-4-one]: less than 100 nM and 100 to 1000 nM.
For `O=C1/C(=C/c2ccc3ncsc3c2)N=C(N(Cc2ccccc2)c2ccccc2)N1Cc1ccccc1` [Example 42, (Z)-5-(benzo[d]thiazol-6-ylmethylene)-3-benzyl-2-(benzyl(phenyl)amino)-3,5-dihydro-4H-imidazol-4-one], in that order: more than 10000 nM and more than 10000 nM.
Turning to `O=C1NC(Nc2ccccc2)=N/C1=C\c1ccc2ncccc2c1` [Example 53, (Z)-2-(phenylamino)-5-(quinolin-6-ylmethylene)-3,5-dihydro-4H-imidazol-4-one], the IC50 in experiment [1] and in experiment [2] was more than 10000 nM throughout.
With `COc1ccc(N(C)C2=N/C(=C\c3ccc4ncsc4c3)C(=O)N2)cc1` [Example 38, (Z)-5-(benzo[d]thiazol-6-ylmethylene)-2-((4-methoxyphenyl)(methyl)amino)-3,5-dihydro-4H-imidazol-4-one], the figures for the IC50 in experiment [1] and in experiment [2] were 100 to 1000 nM and 1000 to 10000 nM, respectively.
The matching figures for `CN(CC1CC1)C1=N/C(=C\c2ccc3c(c2)OCO3)C(=O)N1` [Example 11, (Z)-5-(benzo[d][1,3]dioxol-5-ylmethylene)-2-((cyclopropylmethyl)(methyl)amino)-3,5-dihydro-4H-imidazol-4-one]: 100 to 1000 nM and more than 10000 nM.
For `CN(C1=N/C(=C\c2ccc3ncsc3c2)C(=O)N1)c1ccccc1` [Example 7, (Z)-5-(benzo[d]thiazol-6-ylmethylene)-2-(methyl(phenyl)amino)-3,5-dihydro-4H-imidazol-4-one], the IC50 in experiment [1] and in experiment [2] was 100 to 1000 nM each time.
In the case of `O=C1NC(Nc2ccc3nccnc3c2)=N/C1=C\c1ccc2ncsc2c1` [Example 82, (Z)-5-(benzo[d]thiazol-6-ylmethylene)-2-(quinoxalin-6-ylamino)-3,5-dihydro-4H-imidazol-4-one], the IC50 in experiment [1] is less than 100 nM; in experiment [2] it was more than 10000 nM.
The matching figures for `CN(C1=N/C(=C\c2ccc3ncsc3c2)C(=O)N1)c1ccc(N)cc1` [Example 44, (Z)-2-((4-aminophenyl)(methyl)amino)-5-(benzo[d]thiazol-6-ylmethylene)-3,5-dihydro-4H-imidazol-4-one]: 100 to 1000 nM and 100 to 1000 nM.
For `CC(C)NC1=N/C(=C\c2ccc3ncsc3c2)C(=O)N1C` [Example 45, (Z)-5-(benzo[d]thiazol-6-ylmethylene)-2-(isopropylamino)-3-methyl-3,5-dihydro-4H-imidazol-4-one], in that order: 1000 to 10000 nM and 100 to 1000 nM.
For `NC1=N/C(=C\c2ccc3ncsc3c2)C(=O)N1` [Example 103, (Z)-2-amino-5-(benzo[d]thiazol-6-ylmethylene)-3,5-dihydro-4H-imidazol-4-one], in that order: 100 to 1000 nM and 100 to 1000 nM.
As for `O=C1NC(N(CCO)c2ccccc2)=N/C1=C\c1ccc2c(c1)OCO2` [Example 13, (Z)-5-(benzo[d][1,3]dioxol-5-ylmethylene)-2-((2-hydroxyethyl)(phenyl)amino)-3,5-dihydro-4H-imidazol-4-one], the IC50 was 100 to 1000 nM in experiment [1] and more than 10000 nM in experiment [2].
The matching figures for `CN(C1=N/C(=C\c2ccc3ncsc3c2)C(=O)N1)c1ccc2ncsc2c1` [Example 83, (Z)-2-(benzo[d]thiazol-6-yl(methyl)amino)-5-(benzo[d]thiazol-6-ylmethylene)-3,5-dihydro-4H-imidazol-4-one]: 100 to 1000 nM and 100 to 1000 nM.
For `O=C1NC(Nc2ccc(Cl)cc2)=N/C1=C\c1ccc2ncsc2c1` [Example 40, (Z)-5-(benzo[d]thiazol-6-ylmethylene)-2-((4-chlorophenyl)amino)-3,5-dihydro-4H-imidazol-4-one], in that order: more than 10000 nM and 100 to 1000 nM.
As to `CN(C1=N/C(=C\c2ccc3c(c2)OCCO3)C(=O)N1)c1ccc2ncsc2c1` [Example 84, (Z)-2-(benzo[d]thiazol-6-yl(methyl)amino)-5-((2,3-dihydrobenzo[b][1,4]dioxin-6-yl)methylene)-3,5-dihydro-4H-imidazol-4-one], the IC50 is 100 to 1000 nM in experiment [1] and more than 10000 nM in experiment [2].
The matching figures for `O=C1NC(Nc2ccccc2)=N/C1=C\c1ccc2ncsc2c1` [Example 6, (Z)-5-(benzo[d]thiazol-6-ylmethylene)-2-(phenylamino)-3,5-dihydro-4H-imidazol-4-one]: less than 100 nM and 100 to 1000 nM.
For the molecule `O=C1NC(N(Cc2ccccc2)c2ccccc2)=N/C1=C\c1ccc2c(c1)OCO2` [Example 22, (Z)-5-(benzo[d][1,3]dioxol-5-ylmethylene)-2-(benzyl(phenyl)amino)-3,5-dihydro-4H-imidazol-4-one], the IC50 in experiment [1] and in experiment [2] was more than 10000 nM throughout.
On to `CN(C1=N/C(=C\c2ccc3c(c2)OCO3)C(=O)N1)c1ccc2ncsc2c1` [Example 70, (Z)-5-(benzo[d][1,3]dioxol-5-ylmethylene)-2-(benzo[d]thiazol-6-yl(methyl)amino)-3,5-dihydro-4H-imidazol-4-one], for which the values for the IC50 in experiment [1] and in experiment [2] were 100 to 1000 nM and more than 10000 nM, respectively.
Regarding `O=C1/C(=C/c2ccc3c(c2)OCO3)N=C(N(Cc2ccccc2)c2ccccc2)N1Cc1ccccc1` [Example 2, (Z)-5-(benzo[d][1,3]dioxol-5-ylmethylene)-3-benzyl-2-(benzyl(phenyl)amino)-3,5-dihydro-4H-imidazol-4-one], the IC50 in experiment [2] is more than 10000 nM.
As for `COc1ccccc1N(C)C1=N/C(=C\c2ccc3c(c2)OCO3)C(=O)N1` [Example 21, (Z)-5-(benzo[d][1,3]dioxol-5-ylmethylene)-2-((2-methoxyphenyl)(methyl)amino)-3,5-dihydro-4H-imidazol-4-one], the IC50 in experiment [1] was 1000 to 10000 nM; in experiment [2], more than 10000 nM.
In the case of `CN(C1=N/C(=C\c2ccc3c(c2)OCO3)C(=O)N1)c1ccc(N)cc1` [Example 37, (Z)-2-((4-aminophenyl)(methyl)amino)-5-(benzo[d][1,3]dioxol-5-ylmethylene)-3,5-dihydro-4H-imidazol-4-one], the IC50 is 100 to 1000 nM in experiment [1] and more than 10000 nM in experiment [2].
For `O=C1NC(Nc2ccccc2)=N/C1=C\c1ccc2occc2c1` [Example 52, (Z)-5-(benzofuran-5-ylmethylene)-2-(phenylamino)-3,5-dihydro-4H-imidazol-4-one], in that order: more than 10000 nM and more than 10000 nM.
